According to PMC5069304 (Clinical Pharmacokinetics, 2016):

Tests used:
[1] = Population pharmacokinetic analysis of plasma liraglutide; type: in vivo, human
[2] = Exposure assessment for dose proportionality, phase II dose-finding trial; type: in vivo, human
[3] = 60 kg subject vs reference subject weighing 100 kg
[4] = 234 kg subject vs reference subject weighing 100 kg

CCCCCCCCCCCCCCCC(=O)N[C@@H](CCC(=O)NCCCC[C@H](NC(=O)[C@H](C)NC(=O)[C@H](C)NC(=O)[C@H](CCC(N)=O)NC(=O)CNC(=O)[C@H](CCC(=O)O)NC(=O)[C@H](CC(C)C)NC(=O)[C@H](Cc1ccc(O)cc1)NC(=O)[C@H](CO)NC(=O)[C@H](CO)NC(=O)[C@@H](NC(=O)[C@H](CC(=O)O)NC(=O)[C@H](CO)NC(=O)[C@@H](NC(=O)[C@H](Cc1ccccc1)NC(=O)[C@@H](NC(=O)CNC(=O)[C@H](CCC(=O)O)NC(=O)[C@H](C)NC(=O)[C@@H](N)Cc1cnc[nH]1)[C@@H](C)O)[C@@H](C)O)C(C)C)C(=O)N[C@@H](CCC(=O)O)C(=O)N[C@@H](Cc1ccccc1)C(=O)N[C@H](C(=O)N[C@@H](C)C(=O)N[C@@H](Cc1c[nH]c2ccccc12)C(=O)N[C@@H](CC(C)C)C(=O)N[C@H](C(=O)N[C@@H](CCCNC(=N)N)C(=O)NCC(=O)N[C@@H](CCCNC(=N)N)C(=O)NCC(=O)O)C(C)C)[C@@H](C)CC)C(=O)O [liraglutide, Liraglutide]
CL/F lower than in reference subject [1, 3]: 29%
liraglutide exposure higher than in reference subject [1, 3]: 41%
CL/F higher than in reference subject [1, 4]: 78%
liraglutide exposure lower than in reference subject [1, 4]: 44%
liraglutide exposure lower in males than in females ([1]; comparable body weight): 24%
liraglutide exposure lower in subjects with T2DM than in normoglycaemic subjects ([1]; confounded by trial (all T2DM subjects from Trial 2)): 16%
higher exposure in Trial 1 than in Trial 2 ([1]; liraglutide 3.0 mg): 29%
liraglutide exposure higher in females than males ([1]; same/comparable body weight): 32%
geometric mean of the individual apparent clearance estimates ([2]; Trial 3): 0.93 L/h
dose proportionality of model-derived AUC by dose ([2]; obese individuals, 1.2, 1.8, 2.4, 3.0 mg once daily, week 20): supported dose proportionality of liraglutide up to and including 3.0 mg
